Assay results reported in patent US20240124409A1, “GUAIANOLIDE SESQUITERPENE LACTONE DERIVATIVES AND PHARMACEUTICAL USE THEREOF” (NANJING UNIVERSITY OF CHINESE MEDICINE, priority 2021, published 2024).
Marks after values point to notes of the source that are not given here.

What was measured:
[1] = test system: Hepa1-6 cells; assay: Hepa1-6 subcutaneous mouse xenograft model; type: in vivo, C57BL/6 mice; details: 2 weeks
Experimental: (§1) Hepa1-6 cells were cultured and amplified in vitro. Appropriate amount of the cells in logarithmic growth phase were resuspended in a suspension of a serum-free DMEM medium and Matrigel (1:1) to prepare a cell suspension in 2.5×10^6/100 μL under sterile conditions. 100 μL of the cell suspension was subcutaneously inoculated into the armpits of the front left limbs of C57BL/6 mice with a syringe. When the tumor volume grew to 100-200 mm^3, animals with moderate tumor size were randomly divided into groups, with 6 animals in each group. […] The mice were administered intragastrically every day for 2 weeks. During the administration, the weights and tumor diameters of the mice were measured every day. After the experiment, the mice were sacrificed by cervical dislocation, and the tumors were taken and weighed. The formula for calculating a tumor volume (TV) is: TV=½×a×b^2, where a represents the long diameter of a tumor; b represents the short diameter of a tumor.

[2] = test system: MDSCs and T cells; assay: H22 xenograft model, flow cytometry of MDSCs and T cells in tumor and spleen; type: in vivo, BALB/c mice
Experimental: as §1, with “H22” for “Hepa1-6”, “RPMI 1640” for “DMEM”, “3×105/100” for “2.5×10^6/100”, “BALB/c” for “C57BL/6”
The tumor-bearing mice were sacrificed by the cervical dislocation method, placed in a beaker containing 75% alcohol, and the tumors of the mice were peeled off. The tumors were first soaked in a sterile petri dish containing RPMI 1640. After all the tumors were peeled off, fingernail sized tumor was cut off and transferred to a 1.5 mL EP tube. The tumors were cut into small pieces, and transferred into a 15 mL centrifuge tube containing 3-5 mL of digestive enzymes (Collagenase IV 1 mg/mL, Hyaluronidase 1 mg/mL, and DNase I 20 U/mL), and digested in a shaker at 200 rpm and 37° C. for 1 h. After digestion, the mixture was allowed to pass through a 200-mesh screen to obtain the suspension of the tumor cells. The resulting tumor suspension was centrifuged at 1600 rpm for 5 min. The supernatant was aspirated away. 1 mL of 1×PBS was added into each tube to resuspend the cells. The cell suspension was transferred into a 1.5 mL EP tube, and centrifuged at 1600 rpm for 5 min. The supernatant was removed. 100 μL of 1×PBS was used in each tube to resuspend the cells respectively. Then 1 μL of a viability dye was added. The mixture was incubated at room temperature in the dark for 15 min after being mixed well. At the same time, the spleen was taken out with a tweezer, placed into a sterile petri dish containing 5 mL of the RPMI 1640 medium, and positioned on a 200-mesh cell screen. The spleen was gently ground with the needle core of a 10 mL syringe. A small amount of the RPMI 1640 medium was aspirated to rinse the cell screen. The spleen cell suspension was rinsed into a 15 mL centrifuge tube, and centrifuged at 1600 rpm for 5 min to collect cells. The cells were washed once with 1×PBS. 3 mL of an erythrocyte lysate (diluted with ddH2O) was added to each tube to lyse for 5 min. After lysing, 10 mL of 1×PBS was added to each tube to stop lysing. The mixture was centrifuged at 1600 rpm for 5 min. 1 mL of 1×PBS was added to each 15 mL centrifuge tube. The mixture was transferred to a 1.5 mL EP tube, and centrifuged at 1600 rpm for 5 min. 1 mL of 1×PBS was added to each tube of the stained tumor cells and lysed spleen cells respectively to wash once. The mixture was centrifuged at 1600 rpm for 5 min, and the supernatant was removed. 100 μL of 1×PBS was used to resuspend the tumor cells and spleen cells respectively. 1 μL of the FcX™ antibody was then added to each tube. The mixture was incubated at room temperature in the dark for 10 min. After the incubation, 1 μL of each of the CD45, CD11b and Gr1 antibodies was added to each tube sequentially. The mixture was incubated at 4° C. in the dark for 30 min, and washed once with 1×PBS after the incubation. The supernatant was discarded. 300 μL of 1×PBS was used to resuspend the cells. The mixture was filtered through a filter membrane into a flow tube, and detected on a machine.

[3] = test system: NLRP3 inflammasome; details: read-out: inhibitory activity against the NLRP3 inflammasome activation, EC50; cited from earlier work
[4] = Safety investigation of Compound 23, 30 days in mice; type: in vivo, C57BL/6 mice; details: for body weight: in % (unit assumed)

C=C1C(=O)O[C@@H]2[C@H]3C(C)=CC[C@@]34O[C@@]4(C)CC[C@@H]12 [arglabin, reference compound]
Tumor growth inhibition ([1]; 10 mg/kg/d i.g.): 95.86%***
Tumor weight ([1]; 10 mg/kg/d i.g.): 0.04 g
MDSCs in Spleen ([2]; 10 mg/kg/d): 27.89%
MDSCs in tumor ([2]; 10 mg/kg/d): 27.0%
T Cells in Spleen ([2]; 10 mg/kg/d): 27.02%
T Cells in tumor ([2]; 10 mg/kg/d): 17.72%
EC50 [3]: 10 nM

CN(C)C[C@@H]1C(=O)O[C@H]2[C@H]1CC[C@@]1(C)C[C@]13CC[C@@](C)(O)[C@H]23 [Compound 23]
Tumor growth inhibition ([1]; 8.43 mg/kg/d i.g.): 96.78%***
Tumor weight ([1]; 8.43 mg/kg/d i.g.): 0.03 g
activities of the mice after each administration ([4]; 500 and 1000 mg/kg): relatively reduced
time to return to normal after administration ([4]; 500 and 1000 mg/kg): 1 to 2 h
mortality ([4]; 500 and 1000 mg/kg, 30 days): none of the mice die
effect on body weights ([4]; 500 and 1000 mg/kg, female and male mice): no obvious effect on the body weights
body weight ([4]; female, 500 mg/kg i.g. daily, Day 1): 100.00 ± 0.00
body weight ([4]; female, 500 mg/kg i.g. daily, Day 5): 100.41 ± 0.43
body weight ([4]; female, 500 mg/kg i.g. daily, Day 10): 99.01 ± 1.34
body weight ([4]; female, 500 mg/kg i.g. daily, Day 15): 100.03 ± 0.95
body weight ([4]; female, 500 mg/kg i.g. daily, Day 20): 100.52 ± 0.74
body weight ([4]; female, 500 mg/kg i.g. daily, Day 25): 99.81 ± 1.72
body weight ([4]; female, 500 mg/kg i.g. daily, Day 30): 99.79 ± 2.55
body weight ([4]; female, 1000 mg/kg i.g. daily, Day 1): 100.00 ± 0.00
body weight ([4]; female, 1000 mg/kg i.g. daily, Day 5): 101.96 ± 0.55
body weight ([4]; female, 1000 mg/kg i.g. daily, Day 10): 101.80 ± 2.02
body weight ([4]; female, 1000 mg/kg i.g. daily, Day 15): 99.77 ± 2.60
body weight ([4]; female, 1000 mg/kg i.g. daily, Day 20): 101.04 ± 2.13
body weight ([4]; female, 1000 mg/kg i.g. daily, Day 25): 99.06 ± 3.56
body weight ([4]; female, 1000 mg/kg i.g. daily, Day 30): 100.67 ± 0.91
body weight ([4]; male, 500 mg/kg i.g. daily, Day 1): 100.00 ± 0.00
body weight ([4]; male, 500 mg/kg i.g. daily, Day 5): 100.31 ± 0.89
body weight ([4]; male, 500 mg/kg i.g. daily, Day 10): 101.51 ± 4.00
body weight ([4]; male, 500 mg/kg i.g. daily, Day 15): 99.27 ± 2.11
body weight ([4]; male, 500 mg/kg i.g. daily, Day 20): 101.29 ± 0.40
body weight ([4]; male, 500 mg/kg i.g. daily, Day 25): 98.93 ± 0.60
body weight ([4]; male, 500 mg/kg i.g. daily, Day 30): 100.10 ± 1.08
body weight ([4]; male, 1000 mg/kg i.g. daily, Day 1): 100.00 ± 0.00
body weight ([4]; male, 1000 mg/kg i.g. daily, Day 5): 101.48 ± 1.30
body weight ([4]; male, 1000 mg/kg i.g. daily, Day 10): 101.22 ± 0.84
body weight ([4]; male, 1000 mg/kg i.g. daily, Day 15): 100.47 ± 1.28
body weight ([4]; male, 1000 mg/kg i.g. daily, Day 20): 100.15 ± 2.76
body weight ([4]; male, 1000 mg/kg i.g. daily, Day 25): 98.35 ± 1.14
body weight ([4]; male, 1000 mg/kg i.g. daily, Day 30): 100.71 ± 0.53
MDSCs in Spleen ([2]; 8.43 mg/kg/d): 23.10%
MDSCs in tumor ([2]; 8.43 mg/kg/d): 7.86%
T Cells in Spleen ([2]; 8.43 mg/kg/d): 37.19%
T Cells in tumor ([2]; 8.43 mg/kg/d): 29.44%
